Assay results published in ChEMBL document CHEMBL1201862, “PubChem BioAssay data set” (2004).
Calls of active or inactive are those of the source.

Key:
Cytochrome P450 2C19 = Cytochrome P450 2C19 (Homo sapiens, UniProt P33261); assay: Cytochrome panel assay with activity outcomes. Panel member name: p450-cyp2c19 Compounds with AC50 equal or less than 10 uM are considered active; type: functional; settings: read-out: AC50
[1] = viability of uninfected HEp-2 cells – cell-based, HTS, cytotoxicity control for RSV inhibitor project, dose response (AID 2410); type: functional; settings: human respiratory syncytial virus
Cytochrome P450 2D6 = Cytochrome P450 2D6 (Homo sapiens, UniProt P10635);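 further: CYP2D6 member of a cytochrome P450 panel assay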
Sequence of Cytochrome P450 2D6 (P10635 whole entry): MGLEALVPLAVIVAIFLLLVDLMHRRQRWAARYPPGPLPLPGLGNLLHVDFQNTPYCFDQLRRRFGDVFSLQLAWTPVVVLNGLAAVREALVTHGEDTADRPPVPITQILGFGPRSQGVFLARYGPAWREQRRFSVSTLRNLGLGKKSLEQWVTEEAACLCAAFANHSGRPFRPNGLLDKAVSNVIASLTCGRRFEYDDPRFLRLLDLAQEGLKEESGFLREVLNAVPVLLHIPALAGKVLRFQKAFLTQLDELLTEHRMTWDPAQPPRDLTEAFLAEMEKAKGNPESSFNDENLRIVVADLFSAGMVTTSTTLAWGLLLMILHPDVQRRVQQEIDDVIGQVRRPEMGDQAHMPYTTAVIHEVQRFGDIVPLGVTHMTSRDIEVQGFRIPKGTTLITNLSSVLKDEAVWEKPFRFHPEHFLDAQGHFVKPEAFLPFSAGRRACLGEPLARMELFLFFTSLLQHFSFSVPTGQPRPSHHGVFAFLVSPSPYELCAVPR

Cytochrome P450 2C9 = Cytochrome P450 2C9 (Homo sapiens, UniProt P11712)
Sequence of Cytochrome P450 2C9 (P11712 whole entry): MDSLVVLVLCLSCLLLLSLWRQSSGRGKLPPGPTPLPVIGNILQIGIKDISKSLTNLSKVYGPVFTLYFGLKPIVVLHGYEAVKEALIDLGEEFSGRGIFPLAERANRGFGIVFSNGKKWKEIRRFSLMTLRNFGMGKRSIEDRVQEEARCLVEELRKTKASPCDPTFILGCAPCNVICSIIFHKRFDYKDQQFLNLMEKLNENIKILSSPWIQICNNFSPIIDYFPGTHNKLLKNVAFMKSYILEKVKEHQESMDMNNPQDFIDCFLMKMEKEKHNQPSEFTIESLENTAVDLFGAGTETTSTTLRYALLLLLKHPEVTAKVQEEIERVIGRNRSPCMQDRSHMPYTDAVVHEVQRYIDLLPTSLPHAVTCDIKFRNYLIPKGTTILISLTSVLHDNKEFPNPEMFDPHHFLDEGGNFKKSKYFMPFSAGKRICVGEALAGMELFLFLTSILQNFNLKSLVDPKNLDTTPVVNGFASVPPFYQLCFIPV

Cytochrome P450 1A2 = target: T1, Cytochrome P450 1A2 (Homo sapiens, UniProt P05177);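 further: PubChem cytochrome P450 panel assay, CYP1A2 panel member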
T1 sequence (P05177 whole entry): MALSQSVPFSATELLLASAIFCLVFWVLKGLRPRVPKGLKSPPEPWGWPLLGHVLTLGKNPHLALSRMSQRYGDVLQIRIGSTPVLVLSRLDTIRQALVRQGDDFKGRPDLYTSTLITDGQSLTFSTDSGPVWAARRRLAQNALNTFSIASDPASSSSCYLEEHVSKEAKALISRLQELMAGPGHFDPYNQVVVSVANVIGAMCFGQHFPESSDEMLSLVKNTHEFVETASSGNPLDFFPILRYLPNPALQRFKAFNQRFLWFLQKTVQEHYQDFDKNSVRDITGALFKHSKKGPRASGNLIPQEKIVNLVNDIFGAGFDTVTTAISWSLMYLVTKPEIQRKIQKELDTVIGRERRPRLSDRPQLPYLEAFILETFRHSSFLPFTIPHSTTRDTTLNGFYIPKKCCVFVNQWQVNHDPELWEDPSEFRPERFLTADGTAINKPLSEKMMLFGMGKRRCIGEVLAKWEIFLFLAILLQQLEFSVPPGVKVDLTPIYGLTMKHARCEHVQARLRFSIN

H4 = assay: Luminescence Cell-Based Dose Response HTS to Identify Activators of 5'UTR Stem-Loop Driven Prion Protein mRNA Translation in H4 Neuroglioblastoma Cells. [Related pubchem assays: 1829 (Project Summary), 1814 (Primary HTS)]; type: functional; settings: Homo sapiens
[2] = Luminescence Cell-Based Dose Response HTS to Identify Activators of Luciferase Translation or Activity in H4 […] Cells. [Related pubchem assays: 1829 (Project Summary), 1814 (Primary HTS)]; type: functional
[3] = target: T2, Corticotropin-releasing factor receptor 2/Corticotropin-releasing factor-binding protein (Homo sapiens, UniProt P24387+Q13324); assay: Dose Response confirmation of uHTS hits for small molecule antagonists of the CRF-binding protein and CRF-R2 receptor complex.; type: functional; settings: read-out: IC50_Mean
T2 sequence (Q13324 whole entry): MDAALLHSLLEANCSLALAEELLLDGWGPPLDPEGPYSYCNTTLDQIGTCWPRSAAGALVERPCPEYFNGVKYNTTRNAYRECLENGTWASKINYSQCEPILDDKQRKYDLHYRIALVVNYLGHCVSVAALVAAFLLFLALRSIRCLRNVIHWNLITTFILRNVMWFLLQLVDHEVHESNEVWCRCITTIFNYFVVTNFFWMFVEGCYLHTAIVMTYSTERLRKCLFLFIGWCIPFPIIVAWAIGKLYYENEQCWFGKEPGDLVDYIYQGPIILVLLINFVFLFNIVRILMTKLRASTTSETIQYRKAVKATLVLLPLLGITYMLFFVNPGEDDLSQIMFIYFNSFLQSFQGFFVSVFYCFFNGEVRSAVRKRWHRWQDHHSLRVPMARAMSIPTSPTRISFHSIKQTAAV
T2 sequence (P24387 whole entry): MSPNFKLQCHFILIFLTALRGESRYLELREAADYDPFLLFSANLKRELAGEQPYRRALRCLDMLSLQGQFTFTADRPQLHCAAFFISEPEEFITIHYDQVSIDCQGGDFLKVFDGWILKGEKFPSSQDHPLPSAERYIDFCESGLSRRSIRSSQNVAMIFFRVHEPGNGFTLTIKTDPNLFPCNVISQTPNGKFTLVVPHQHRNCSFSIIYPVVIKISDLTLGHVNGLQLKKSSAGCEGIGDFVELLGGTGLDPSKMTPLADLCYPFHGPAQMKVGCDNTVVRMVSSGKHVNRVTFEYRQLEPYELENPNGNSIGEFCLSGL

[4] = target: T2, Corticotropin-releasing factor receptor 2/Corticotropin-releasing factor-binding protein; assay: activators of CRF receptor 2 with binding protein – uHTS hits, confirmation (AID 602473); type: functional; settings: read-out: EC50_Mean
[5] = target: T3, Rac GTPase-activating protein 1 (Homo sapiens, UniProt Q9H0H5); assay: blockers of MgcRacGAP-driven Rac1 GTP hydrolysis – biochemical, ADP Hunter fluorescence, primary and confirmatory, confirmation (AID 624330); type: functional
T3 sequence (Q9H0H5 whole entry): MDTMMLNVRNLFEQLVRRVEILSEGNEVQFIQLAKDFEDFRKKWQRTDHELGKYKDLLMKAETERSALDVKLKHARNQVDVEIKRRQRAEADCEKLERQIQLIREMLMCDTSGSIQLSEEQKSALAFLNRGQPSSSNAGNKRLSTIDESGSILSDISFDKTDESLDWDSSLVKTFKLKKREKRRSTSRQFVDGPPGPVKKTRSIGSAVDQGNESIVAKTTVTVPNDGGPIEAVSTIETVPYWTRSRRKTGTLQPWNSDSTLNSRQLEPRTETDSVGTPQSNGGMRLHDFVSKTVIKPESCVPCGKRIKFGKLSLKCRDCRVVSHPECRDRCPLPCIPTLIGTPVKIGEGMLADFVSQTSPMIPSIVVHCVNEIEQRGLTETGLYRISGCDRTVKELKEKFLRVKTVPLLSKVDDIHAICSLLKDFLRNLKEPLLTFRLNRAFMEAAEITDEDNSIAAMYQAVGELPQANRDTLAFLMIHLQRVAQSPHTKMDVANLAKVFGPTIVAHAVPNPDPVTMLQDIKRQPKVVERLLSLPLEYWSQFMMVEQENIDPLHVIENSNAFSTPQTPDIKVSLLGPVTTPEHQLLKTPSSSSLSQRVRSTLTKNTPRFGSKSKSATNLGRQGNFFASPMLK

[6] = fluconazole-exposed Candida albicans growth modulators – fluorescence, retest, confirmation (AID 2467); type: functional, cell-based
[7] = NIH-3T3 fibroblast cytotoxicity, dose response, cytotoxicity control, cell-based, fluorescence, Alamar Blue, secondary assay (AID 2327); type: functional;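 further: NIH-3T3 mouse fibroblasts cultured with fluconazole at 8 µg/mL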

Sequence of Cytochrome P450 2C19 (P33261 whole entry): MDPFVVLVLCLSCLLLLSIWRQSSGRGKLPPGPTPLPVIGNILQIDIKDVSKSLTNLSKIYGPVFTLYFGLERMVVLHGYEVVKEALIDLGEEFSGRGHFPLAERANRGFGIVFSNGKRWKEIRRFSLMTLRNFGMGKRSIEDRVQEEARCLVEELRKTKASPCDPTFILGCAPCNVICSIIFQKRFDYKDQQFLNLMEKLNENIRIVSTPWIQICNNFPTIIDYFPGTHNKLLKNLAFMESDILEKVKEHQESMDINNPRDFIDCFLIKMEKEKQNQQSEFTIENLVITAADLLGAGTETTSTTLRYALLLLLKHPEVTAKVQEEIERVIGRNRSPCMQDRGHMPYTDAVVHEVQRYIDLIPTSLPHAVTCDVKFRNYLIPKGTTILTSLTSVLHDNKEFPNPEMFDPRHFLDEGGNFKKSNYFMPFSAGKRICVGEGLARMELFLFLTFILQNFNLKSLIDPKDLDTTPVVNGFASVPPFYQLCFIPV

COC(=O)CCC(=O)Nc1cccc2ccccc12
AC50 (Cytochrome P450 2C19): 20 µM (inconclusive)

Cc1ccc(-n2nc3c(=O)n(CCCC(=O)NCc4ccccc4C)nc(C)c3c2C)cc1
CC50 [1]: > 50 µM (active)

CN(C(=O)c1ccc(COc2ccccc2Br)o1)c1ccccc1
CC50 [1]: 22.1 µM (active)

Cc1ccc(S(=O)(=O)N2CCC(=O)N(C(COCc3cccc(C)c3)Cc3ccccc3)CC2)cc1 (centres undefined)
CC50 [1]: 28.7 µM (active)

COc1cccc(Nc2ncc3ncc(=O)n(Cc4cccs4)c3n2)c1
AC50 (Cytochrome P450 2D6): 3.98 µM (inconclusive) | AC50 (Cytochrome P450 2C9): 2.51 µM (inconclusive) | AC50 (Cytochrome P450 2C19): 3.98 µM (inconclusive)

c1cc(-c2sc(-c3ccncc3)c(-c3ccncc3)c2-c2ccncc2)ccn1
AC50 (Cytochrome P450 2D6): 3.16 µM (inconclusive) | AC50 (Cytochrome P450 1A2): 3.16 µM (inconclusive)

CCOc1ccc(/C=C2\CCC(C3CCCC3)C2=O)cc1 (centres undefined)
EC50 (H4): > 120 µM (not active) | EC50 [2]: > 120 µM (not active)

C[C@H](NC(=O)c1[nH]cnc1C(=O)N[C@@H](Cc1ccccc1)C(=O)OCc1ccccc1)C(=O)OC(C)(C)C
CC50 [1]: 24.8 µM (active)

C=C1C(C(=O)Nc2ccccc2)C1C(=O)Nc1ccccc1 (centres undefined)
IC50 [3]: > 47.1 µM (inactive) | EC50 [4]: > 53 µM (inactive)

N#Cc1ccc(Oc2nc(C(N)=O)cc(-c3ccccc3)n2)cc1
AC50 (Cytochrome P450 2C19): 25.1 µM (inconclusive)

OCCCN=C(S)Nc1ccc(Nc2ccccc2)cc1
IC50 [5]: 88 µM (active)

Cc1nc2ccc(NC(=O)COc3ccccc3)cc2s1
EC50 [6]: > 38 µM (not active) | EC50 [7]: > 150 µM (inactive)

CCc1ccc(NC(=O)C2CCN(S(=O)(=O)c3c(C)nc(O)nc3O)CC2)cc1
AC50 (Cytochrome P450 2C19): 11.2 µM (inconclusive)

COc1ccccc1OCC#CCn1ccnc1
IC50 [5]: 160 µM (active)

CC[C@H](NC(C)C)[C@H](O)c1ccc(O)c2[nH]c(=O)ccc12 [PROCATEROL]
AC50 (Cytochrome P450 2D6): 31.6 µM (inconclusive) | AC50 (Cytochrome P450 1A2): 39.8 µM (inconclusive)

CCOC(=O)Nc1ccc(S(=O)(=O)NCc2ccccc2)cc1
AC50 (Cytochrome P450 2D6): 14.1 µM (inconclusive) | AC50 (Cytochrome P450 2C9): 5.62 µM (inconclusive) | AC50 (Cytochrome P450 2C19): 2.24 µM (inconclusive)

CCc1nnc(NC(=O)C2CCN(C(=O)NC3CCCCC3)CC2)s1
AC50 (Cytochrome P450 2C9): 20 µM (inconclusive) | AC50 (Cytochrome P450 2C19): 0.158 µM (inconclusive)

CCOC(=O)c1ccc(NC(=O)c2ccc(CO)c(C(=O)NC3CCN(C(=O)OCC)CC3)c2)cc1
EC50 [6]: > 38 µM (not active) | EC50 [7]: > 160 µM (inactive)

O=C1CC(c2ccccc2)CC(O)=C1/C=N/c1ccc(O)cc1 (centres undefined)
IC50 [5]: 26 µM (active)

CCNc1nc(NCC)n2c(SCc3ccc(F)cc3)nnc2n1
IC50 [3]: > 47.1 µM (inactive) | EC50 [4]: > 53 µM (inactive)

CCCCCCCCCC(=O)NNC(=O)c1c(O)c2ccccc2n(CC)c1=O
EC50 [6]: > 38 µM (not active) | EC50 [7]: > 160 µM (inactive)
